From publication PMC11374673, “Discovery of isoquinoline sulfonamides as allosteric gyrase inhibitors with activity against fluoroquinolone-resistant bacteria” (Nature Chemistry, 2024)
pIC50: −log10 of the molar value. ≈ marks a conversion by molar mass, not a printed value. Where “and” joins values, the source holds several entries; their conditions need not be identical. Equal entries are not always repeated. Entries after “also recorded” stand apart in the source; their conditions may differ.

Experiments:
HepG2 = assay: Cytotoxicity assay (MTT); assay type: cell-based, human; conditions: for pIC50: MTT, 24 h
Description: (§1) HepG2 (ATCC HB-8065) and HEK293T (ATCC CRL-3216) cell lines were cultured at 37 °C and 7% CO2 in Dulbecco’s modified Eagle medium (Sigma-Aldrich, D6546) with GlutaMax, penicillin (100 µg ml^−1), streptomycin (100 µg ml^−1) and 10% fetal calf serum. Cells were passaged twice a week by first detaching using 0.05% trypsin in phosphate-buffered saline (PBS) and then diluting to appropriate confluence. Compound cytotoxicity was evaluated using the standard (3-(4,5-dimethylthiazol-2-yl)-2,5-diphenyltetrazolium bromide (MTT) assay protocol (MTT assay protocol for cell viability and proliferation, Merck) with slight changes. HepG2 and HEK293T cells were seeded at a density of 1.5 × 10^4 cells per well in a clear 96-well tissue culture treated plate in a final volume of 100 µl in Dulbecco’s modified Eagle medium, supplemented with fetal bovine serum (1%), GlutaMax and penicillin/streptomycin. Cells were incubated for 24 h at 37 °C, 7% CO2 to allow cells to attach to the plates. […] Incubation was done for 24 h at 37 °C, 7% CO2. After the incubation, MTT was added to each well at a final concentration of 0.40 mg ml^−1. The plates were then incubated for 2 h at 37 °C, 7% CO2. Medium was carefully removed via suction, and purple formazan crystals were resuspended in 100 µl DMSO. Absorbance was read at 570 nm using a Clariostar plate reader with MARS (V4.20). The data were then analysed with GraphPad Prism software. IC50 values were calculated using non-linear fitted curve with variable slope settings, with values adjusted for background (plotted absorbance (ABS)sample = (ABSsample – ABSbackground) / (ABSvehicle – ABSbackground)). Technical triplicates for each condition were used, along with biological duplicates.

HEK293T = assay: Cytotoxicity assay (MTT); assay type: cell-based, human; conditions: for MTT data (raw readout): HEK293T; for pIC50: Homo sapiens, HEK-293T, 24 h, MTT
Description: as §1

K. pneumoniae ATCC 29665 = assay: MIC by broth microdilution; assay type: cell-based, Klebsiella pneumoniae; conditions: Klebsiella pneumoniae, ATCC29665, broth microdilution; read-out: MIC K. pneumoniae ATCC 29665
Outline: (§2)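 Broth microdilution in CAMHB: twofold compound series inoculated with 100-fold-diluted bacteria from exponential growth (OD600 0.5, 37 °C); kanamycin 50 µg ml^−1 added for Keio collection strains. Overnight incubation, 37 °C, 600 r.p.m. shaking.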

E. coli W3110 = assay: MIC by broth microdilution; assay type: cell-based, Escherichia coli; conditions: for MIC: Escherichia coli, W3110, WT, broth microdilution, read-out: MIC E. coli W3110; for antimicrobial activity: relative to parent compound
Outline: as §2

[1] = HepG2, 0.023 uM, experiment n = 1, technical triplicates
[2] = HepG2, 0.023 uM, experiment n = 2, technical triplicates
[3] = HepG2, 0.068 uM, experiment n = 1, technical triplicates
[4] = HepG2, 0.068 uM, experiment n = 2, technical triplicates
[5] = HepG2, 0.21 uM, experiment n = 1, technical triplicates
[6] = HepG2, 0.21 uM, experiment n = 2, technical triplicates
[7] = HepG2, 0.62 uM, experiment n = 1, technical triplicates
[8] = HepG2, 0.62 uM, experiment n = 2, technical triplicates
[9] = HepG2, 1.85 uM, experiment n = 1, technical triplicates
[10] = HepG2, 1.85 uM, experiment n = 2, technical triplicates
[11] = HepG2, 5.6 uM, experiment n = 1, technical triplicates
[12] = HepG2, 5.6 uM, experiment n = 2, technical triplicates
[13] = HepG2, 16.7 uM, experiment n = 1, technical triplicates
[14] = HepG2, 16.7 uM, experiment n = 2, technical triplicates
[15] = 0.023 uM, experiment n = 1, technical triplicates
[16] = 0.023 uM, experiment n = 2, technical triplicates
[17] = 0.068 uM, experiment n = 1, technical triplicates
[18] = 0.068 uM, experiment n = 2, technical triplicates
[19] = 0.21 uM, experiment n = 1, technical triplicates
[20] = 0.21 uM, experiment n = 2, technical triplicates
[21] = 0.62 uM, experiment n = 1, technical triplicates
[22] = 0.62 uM, experiment n = 2, technical triplicates
[23] = 1.85 uM, experiment n = 1, technical triplicates
[24] = 1.85 uM, experiment n = 2, technical triplicates
[25] = 5.6 uM, experiment n = 1, technical triplicates
[26] = 5.6 uM, experiment n = 2, technical triplicates
[27] = 16.7 uM, experiment n = 1, technical triplicates
[28] = 16.7 uM, experiment n = 2, technical triplicates
[29] = 50 uM, experiment n = 1, technical triplicates

Row | SMILES | MTT data (raw readout) (HepG2; [2]) | MTT data (raw readout) (HepG2; [3]) | MTT data (raw readout) (HepG2; [4]) | MTT data (raw readout) (HepG2; [5]) | MTT data (raw readout) (HepG2; [6]) | MTT data (raw readout) (HepG2; [7]) | MTT data (raw readout) (HepG2; [8]) | MTT data (raw readout) (HepG2; [9]) | MTT data (raw readout) (HepG2; [10]) | pIC50 (HepG2; Homo sapiens, HepG2, 24 h) | MTT data (raw readout) (HEK293T; [15]) | MTT data (raw readout) (HEK293T; [16]) | MTT data (raw readout) (HEK293T; [17]) | MTT data (raw readout) (HEK293T; [18]) | MTT data (raw readout) (HEK293T; [19]) | MTT data (raw readout) (HEK293T; [20]) | MTT data (raw readout) (HEK293T; [21]) | MTT data (raw readout) (HEK293T; [22]) | MTT data (raw readout) (HEK293T; [23]) | MTT data (raw readout) (HEK293T; [24]) | also measured
1 | N#Cc1ccc(-c2ccc(CNCCNS(=O)(=O)c3cccc4cnccc34)cc2)cc1 [Compound 63] | 0.611 and 0.614 and 0.593 | 0.510 and 0.515 and 0.533 | 0.570 and 0.587 and 0.633 | 0.498 and 0.524 and 0.534 | 0.605 and 0.658 and 0.657 | 0.497 and 0.566 and 0.560 | 0.617 and 0.653 and 0.661 | 0.544 and 0.508 and 0.538 | 0.697 and 0.634 and 0.669 | 4.42 | 0.901 and 1.153 and 1.291 | 0.788 and 0.714 and 0.753 | 1.230 and 1.606 | 0.880 and 0.788 | 1.126 and 1.263 and 1.301 | 0.786 and 0.824 and 0.781 | 1.516 and 1.537 and 1.418 | 0.850 and 0.846 and 0.825 | 1.143 and 1.250 and 1.118 | 0.775 and 0.761 and 0.773 | MTT data (raw readout) (HepG2; [1]): 0.543 and 0.530 and 0.509; MTT data (raw readout) (HepG2; [11]): 0.597 and 0.586 and 0.658; MTT data (raw readout) (HepG2; [12]): 0.663 and 0.721 and 0.746; MTT data (raw readout) (HepG2; [13]): 0.547 and 0.517 and 0.544; MTT data (raw readout) (HepG2; [14]): 0.629 and 0.671 and 0.616; MTT data (raw readout) (HEK293T; [25]): 1.050 and 1.130 and 1.181; MTT data (raw readout) (HEK293T; [26]): 0.666 and 0.667 and 0.723; MTT data (raw readout) (HEK293T; [27]): 0.577 and 0.585 and 0.499; MTT data (raw readout) (HEK293T; [28]): 0.403 and 0.407 and 0.398; MTT data (raw readout) (HEK293T; [29]): 0.057 and 0.055 and 0.049; pIC50 (HEK293T): 4.83; MIC (K. pneumoniae ATCC 29665): 12.5 µM (≈ 5.53 µg/mL); MIC (E. coli W3110): 6.25 µM (≈ 2.77 µg/mL)
2 | O=S(=O)(NCCNCc1ccc(-c2ccc(F)nc2)c(F)c1)c1cccc2cnccc12 [Compound 89] | 0.940 and 0.892 and 0.823 | 1.059 and 1.047 and 0.930 | 0.912 and 0.982 and 0.829 | 1.201 and 1.007 and 1.154 | 0.862 and 0.878 and 0.892 | 0.908 and 1.012 and 1.031 | 0.861 and 0.862 and 0.848 | 0.964 and 0.831 and 0.983 | 0.918 and 0.866 and 0.845 | 5.17 | 1.460 and 1.327 and 1.155 | 1.578 and 1.464 and 1.567 | 1.383 and 1.285 and 1.405 | 1.657 and 1.634 and 1.543 | 1.422 and 1.388 and 1.379 | 1.511 and 1.515 and 1.445 | 1.302 and 1.254 and 1.287 | 1.280 and 1.339 and 1.417 | 1.134 and 1.184 and 1.193 | 1.303 and 1.294 and 1.289 | MTT data (raw readout) (HepG2; [1]): 1.211 and 1.032 and 1.095; MTT data (raw readout) (HepG2; [11]): 0.840 and 0.880 and 0.890; MTT data (raw readout) (HepG2; [12]): 0.798 and 0.838 and 0.803; MTT data (raw readout) (HEK293T; [25]): 0.891 and 0.915 and 0.826; MTT data (raw readout) (HEK293T; [26]): 0.987 and 0.926 and 0.889; MTT data (raw readout) (HEK293T; [27]): 0.240 and 0.299 and 0.212; MTT data (raw readout) (HEK293T; [28]): 0.285 and 0.310 and 0.251; pIC50 (HEK293T): 5.05; MIC (K. pneumoniae ATCC 29665): 12.5 µM (≈ 5.68 µg/mL); MIC (E. coli W3110): 6.25 µM (≈ 2.84 µg/mL)
3 | O=S(=O)(NC[C@@H]1CC[C@H](c2ccc(-c3ccc(F)nc3)cc2)N1)c1cccc2cnccc12 [Compound 96] | 0.335 and 0.356 and 0.336 | 0.697 and 0.415 and 0.444 | 0.314 and 0.274 and 0.280 | 0.410 and 0.391 and 0.401 | 0.286 and 0.328 and 0.321 | 0.318 and 0.339 and 0.325 | 0.277 and 0.335 and 0.337 | 0.449 and 0.459 and 0.475 | 0.324 and 0.290 and 0.321 | < 4.00 | 1.310 and 1.426 and 1.382 | 1.005 and 1.055 and 0.974 | 1.261 and 1.196 and 1.228 | 1.060 and 1.105 and 1.114 | 1.460 and 1.332 and 1.292 | 0.944 and 1.021 and 1.022 | 1.285 and 1.264 and 1.255 | 0.998 and 0.945 and 0.948 | 1.253 and 1.307 and 1.121 | 0.889 and 0.884 and 0.825 | MTT data (raw readout) (HepG2; [11]): 0.376 and 0.380 and 0.428; MTT data (raw readout) (HepG2; [12]): 0.305 and 0.314 and 0.321; MTT data (raw readout) (HepG2; [13]): 0.356 and 0.341 and 0.324; MTT data (raw readout) (HepG2; [14]): 0.281 and 0.283 and 0.288; MTT data (raw readout) (HepG2; HepG2, 50 uM, experiment n = 1, technical triplicates): 0.302 and 0.347 and 0.370; MTT data (raw readout) (HepG2; HepG2, 50 uM, experiment n = 2, technical triplicates): 0.208 and 0.219 and 0.229; pIC50 (HepG2): < 4.30; MTT data (raw readout) (HEK293T; [25]): 0.992 and 0.906 and 1.276; MTT data (raw readout) (HEK293T; [26]): 0.770 and 0.750 and 0.744; MTT data (raw readout) (HEK293T; [27]): 0.263 and 0.250 and 0.238; MTT data (raw readout) (HEK293T; [28]): 0.552 and 0.449 and 0.479; MTT data (raw readout) (HEK293T; [29]): 0.081 and 0.067 and 0.062; MTT data (raw readout) (HEK293T; 50 uM, experiment n = 2, technical triplicates): 0.360 and 0.319 and 0.325; pIC50 (HEK293T): 4.66; MIC (K. pneumoniae ATCC 29665): 12.5 µM (≈ 5.78 µg/mL); MIC (E. coli W3110): 3.1 µM (≈ 1.43 µg/mL); antimicrobial activity (E. coli W3110): twofold increase in potency; also recorded: active
4 | O=S(=O)(NC[C@H]1CC[C@H](c2ccc(-c3ccc(F)nc3)cc2)N1)c1cccc2cnccc12 [Compound 97] | 0.270 and 0.220 and 0.207 | 0.289 and 0.307 and 0.326 | 0.263 and 0.259 and 0.236 | 0.296 and 0.298 and 0.289 | 0.257 and 0.247 and 0.226 | 0.322 and 0.321 and 0.315 | 0.242 and 0.234 | 0.327 and 0.348 and 0.347 | 0.240 and 0.213 | < 4.00 | 1.365 and 1.275 and 1.431 | 0.941 and 0.907 and 1.040 | 1.367 and 1.278 and 1.395 | 0.968 and 0.952 and 1.040 | 1.452 and 1.196 and 1.181 | 0.930 and 0.987 and 0.817 | 1.160 and 1.204 and 1.255 | 0.874 and 0.902 and 0.863 | 1.307 and 1.173 and 1.284 | 0.763 and 0.774 and 0.841 | MTT data (raw readout) (HepG2; [1]): 0.311 and 0.313 and 0.321; pIC50 (HepG2): < 4.30; pIC50 (HEK293T): 4.41; MIC (K. pneumoniae ATCC 29665): 25 µM (≈ 11.6 µg/mL); MIC (E. coli W3110): 12.5 µM (≈ 5.78 µg/mL); antimicrobial activity (E. coli W3110): fourfold less active; also recorded: reduced activity
